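Values below derive from 48-hour exposures of cells grown in 96-well plates, with endpoints linearly interpolated between the two concentrations bracketing the appropriate inhibition level. TGI marks complete inhibition of growth.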
Columns and labels:
Experiment in all cases: DTP human tumour cell line panel, 48 h
OVCAR-5 ovarian = tested on: OVCAR-5 ovarian
IGROV1 ovarian = tested on: IGROV1 ovarian
ACHN renal = tested on: ACHN renal
CCRF-CEM leukemia = tested on: CCRF-CEM leukemia
OVCAR-8 ovarian = tested on: OVCAR-8 ovarian
MALME-3M melanoma = tested on: MALME-3M melanoma
MDA-N = tested on: MDA-N
HCT-15 colon = tested on: HCT-15 colon
MDA-MB-231 breast = tested on: MDA-MB-231 breast
SK-MEL-2 melanoma = tested on: SK-MEL-2 melanoma
UO-31 renal = tested on: UO-31 renal
NCI-H226 lung = tested on: NCI-H226 lung
NCI/ADR-RES ovarian = tested on: NCI/ADR-RES ovarian
HOP-92 NSCLC = tested on: HOP-92 NSCLC
MOLT-4 leukemia = tested on: MOLT-4 leukemia
HT29 colon = tested on: HT29 colon
M14 melanoma = tested on: M14 melanoma
LOX IMVI melanoma = tested on: LOX IMVI melanoma
EKVX NSCLC = tested on: EKVX NSCLC
M19-MEL melanoma = tested on: M19-MEL melanoma

Row | Compound | TGI (OVCAR-5 ovarian) [µM] | TGI (IGROV1 ovarian) [µM] | TGI (ACHN renal) [µM] | TGI (CCRF-CEM leukemia) [µM] | TGI (OVCAR-8 ovarian) [µM] | TGI (MALME-3M melanoma) [µM] | TGI (MDA-N) [µM] | TGI (HCT-15 colon) [µM] | TGI (MDA-MB-231 breast) [µM] | TGI (SK-MEL-2 melanoma) [µM] | TGI (UO-31 renal) [µM] | TGI (NCI-H226 lung) [µM] | TGI (NCI/ADR-RES ovarian) [µM] | TGI (HOP-92 NSCLC) [µM] | TGI (MOLT-4 leukemia) [µM] | TGI (HT29 colon) [µM] | TGI (M14 melanoma) [µM] | TGI (LOX IMVI melanoma) [µM] | TGI (EKVX NSCLC) [µM] | TGI (M19-MEL melanoma) [µM]
1 | Cc1cc(C)c(S(=O)(=O)N(CCCCCCN)OCCCN)c(C)c1 | 40.1 | 29.6 | 30.9 | 36.9 | 27.9 | 24 | 32.2 | 32.5 | 24.4 | 36 | 43.2 | 86.5 | > 100 | 29.9 | 34.4 | 30 | 44.9 | 31.3 | 29.9 | –
2 | CC(OC1CC(=O)CC2C(=O)C=CC(=O)C12)c1ccccc1 (configuration not stated) | 31.6 | 31.4 | 24.1 | 9.54 | 33.2 | 34.9 | – | 31.4 | – | 34.9 | 29.5 | 36.5 | – | 2.97 | > 49.2 | 33 | 33.3 | 33.3 | 30.6 | 29.8
3 | COc1ccc(/C=N/NC(=O)c2ccccc2Nc2ccccc2C(=O)N/N=C/c2ccc(OC)cc2)cc1 | > 100 | > 100 | > 100 | > 100 | > 100 | > 100 | > 100 | > 100 | > 100 | > 100 | > 100 | > 100 | > 100 | > 100 | > 100 | > 100 | > 100 | > 100 | > 100 | –
4 | CC(C)[C@H]1CO[C@@H]2O[C@H](C)CC(=O)N21 | – | > 100 | > 100 | > 100 | > 100 | > 100 | – | > 100 | – | > 100 | > 100 | > 100 | – | > 100 | > 100 | > 100 | > 100 | – | > 100 | > 100
5 | CCN(CC)CCOc1ccc(N2Cc3ccccc3C2=O)cc1 | > 10 | > 10 | > 10 | > 10 | > 10 | > 10 | > 10 | > 10 | > 10 | > 10 | > 10 | > 10 | > 10 | > 10 | > 10 | > 10 | > 10 | > 10 | > 10 | –
6 | COc1cc(CNc2nc3ccccc3n2Cc2ccccc2)cc(CN2CCOCC2)c1O | 87.8 | > 100 | > 100 | > 100 | > 100 | 34 | 68.2 | 70.6 | 38.1 | 47.5 | 52.5 | 82.8 | 65.6 | 56.3 | > 100 | 70.4 | 40.4 | 30.7 | > 100 | –
7 | COc1cc2c(cc1O)[C@H](C)C(c1ccccc1OC)O2 (some centres not stated) | > 100 | > 100 | 23.9 | 30.6 | 57.8 | > 100 | – | 12.1 | – | – | 70.2 | 72.3 | – | 62.8 | – | 61.3 | > 100 | 26.7 | > 100 | > 100
8 | CCCCC1C(=O)N(c2ccc(S(=O)(=O)Nc3ccccn3)cc2)N(c2ccc(O)c(C(=O)O)c2)C1=O (configuration not stated) | > 100 | > 100 | > 100 | > 100 | > 100 | > 100 | > 100 | > 100 | > 100 | > 100 | > 100 | > 100 | > 100 | > 100 | > 100 | > 100 | > 100 | > 100 | > 100 | –
9 | O=C1N[C@H]2C(=O)c3c(Cl)sc(Cl)c3[C@H]2O1 | 37.7 | 10.6 | 21 | 10.9 | 7.74 | 33 | 14.7 | 16.6 | 32 | 43.4 | 3.24 | > 100 | > 71.5 | 26.4 | 8.22 | 6.23 | 19.6 | 6.97 | 3.85 | –
10 | CS(=O)(=O)N1CC(CCl)c2ccc(NCCN)cc21 (configuration not stated) | > 100 | 49.8 | > 100 | > 100 | > 100 | > 100 | > 100 | > 100 | > 100 | > 100 | > 100 | > 100 | > 100 | 74.6 | > 100 | > 100 | > 100 | > 100 | > 100 | –
11 | CC(O)CCNC(=O)Nc1c(C(F)(F)F)cc(-c2ccccc2)[nH]c1=O (configuration not stated) | > 100 | > 100 | > 100 | > 100 | > 100 | > 100 | > 100 | > 100 | > 100 | > 100 | > 100 | > 100 | > 100 | > 100 | > 100 | > 100 | > 100 | > 100 | > 100 | –
12 | N#CC(c1ccccc1)N(CCc1ccccc1)C(=O)c1ccccc1 (configuration not stated) | > 100 | > 100 | > 100 | > 100 | > 100 | > 100 | > 100 | > 100 | > 100 | > 100 | > 100 | > 100 | > 100 | 59.7 | > 100 | > 100 | > 100 | > 100 | > 100 | –
13 | CC(=O)c1cccc(Nc2c3ccccc3nc3occc23)c1 | > 100 | 9.58 | > 100 | 18.8 | > 100 | 27.6 | > 100 | > 100 | 67.7 | 11.4 | > 100 | > 100 | 6.47 | 62.2 | 51.6 | 8.46 | 24.4 | > 100 | > 100 | –
